pIC50: −log10 of the molar value.
Columns and labels:
[1] = biological target: human JAK1 (a.a. 837-1142) (Homo sapiens, UniProt P23458); assay: In vitro JAK kinase assay (HTRF, phosphorylation of biotinylated peptide), JAK1; assay type: biochemical; details: Table F; 1 mM ATP
In short: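 His-tagged human JAK1 catalytic domain (a.a. 837-1142), baculovirus/insect-cell expressed, phosphorylates a biotinylated peptide for 1 h at room temperature. Reaction stopped with EDTA; product detected by HTRF (SA-APC, Eu-Py20, 40 min binding). IC50 reported as ranges.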

[2] = biological target: T1, JAK2 (a.a. 828-1132) (Homo sapiens, UniProt O60674); assay: In vitro JAK kinase assay (HTRF, phosphorylation of biotinylated peptide), JAK2; assay type: biochemical; details: Table F; 1 mM ATP
T1 construct: JAK2 (a.a. 828-1132); His tag (N)
In short: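 His-tagged catalytic domains of human JAK1 (a.a. 837-1142) and JAK2 (a.a. 828-1132), baculovirus-expressed, phosphorylate a biotinylated peptide for 1 hour at room temperature. Stopped with EDTA; detected by HTRF using SA-APC and Eu-Py20 antibody after 40 min binding; values binned as ranges.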

human JAK1 (a.a. 837-1142), sequence (P23458 849-1154): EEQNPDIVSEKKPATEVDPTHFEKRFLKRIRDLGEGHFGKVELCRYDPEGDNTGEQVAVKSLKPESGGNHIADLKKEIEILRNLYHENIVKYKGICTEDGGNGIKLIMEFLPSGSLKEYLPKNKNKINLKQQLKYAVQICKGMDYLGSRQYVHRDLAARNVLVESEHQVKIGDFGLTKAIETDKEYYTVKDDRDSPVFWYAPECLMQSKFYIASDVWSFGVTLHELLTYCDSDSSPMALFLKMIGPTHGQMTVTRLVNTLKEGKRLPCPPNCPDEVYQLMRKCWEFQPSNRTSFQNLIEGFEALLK
T1 sequence (O60674 828-1132): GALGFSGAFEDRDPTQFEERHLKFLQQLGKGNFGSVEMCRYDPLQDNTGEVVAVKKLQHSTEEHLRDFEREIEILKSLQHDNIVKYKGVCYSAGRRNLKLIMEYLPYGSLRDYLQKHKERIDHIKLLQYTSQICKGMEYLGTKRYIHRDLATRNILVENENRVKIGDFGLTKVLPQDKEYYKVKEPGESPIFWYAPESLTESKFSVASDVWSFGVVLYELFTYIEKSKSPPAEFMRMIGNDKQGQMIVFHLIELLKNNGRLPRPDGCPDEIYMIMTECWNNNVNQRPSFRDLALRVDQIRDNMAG

Compound	pIC50 [1]	pIC50 [2]
CN(C)Cc1cc(Cl)nc(OC2CCN([C@H]3C[C@](CC#N)(n4cc(-c5ncnc6[nH]ccc56)cn4)C3)CC2)c1 [Example 141, {trans-3-[4-({6-chloro-4-[(dimethylamino)methyl]pyridin-2-yl}oxy)piperidin-1-yl]-1-[4-(7H-pyrrolo[2,3-d]pyrimidin-4-yl)-1H-pyrazol-1-yl]cyclobutyl}acetonitrile]	> 8.00	> 8.00
CN(C)Cc1cc(OC2CCN([C@H]3C[C@](CC#N)(n4cc(-c5ncnc6[nH]ccc56)cn4)C3)CC2)nc(C(F)(F)F)n1 [Example 142, {trans-3-(4-{[6-[(dimethylamino)methyl]-2-(trifluoromethyl)pyrimidin-4-yl]oxy}piperidin-1-yl)-1-[4-(7H-pyrrolo[2,3-d]pyrimidin-4-yl)-1H-pyrazol-1-yl]cyclobutyl}acetonitrile]	7.60 to 8.00	< 7.00
CCNCc1cc(OC2CCN([C@H]3C[C@](CC#N)(n4cc(-c5ncnc6[nH]ccc56)cn4)C3)CC2)nc(C(F)(F)F)n1 [Example 143, {trans-3-(4-{[6-[(ethylamino)methyl]-2-(trifluoromethyl)pyrimidin-4-yl]oxy}piperidin-1-yl)-1-[4-(7H-pyrrolo[2,3-d]pyrimidin-4-yl)-1H-pyrazol-1-yl]cyclobutyl}acetonitrile]	7.60 to 8.00	7.00 to 7.60
N#CC[C@]1(n2cc(-c3ncnc4[nH]ccc34)cn2)C[C@H](N2CCC(Oc3cc(CN4CC(O)C4)nc(C(F)(F)F)n3)CC2)C1 [Example 144, {trans-3-(4-{[6-[(3-hydroxyazetidin-1-yl)methyl]-2-(trifluoromethyl)pyrimidin-4-yl]oxy}piperidin-1-yl)-1-[4-(7H-pyrrolo[2,3-d]pyrimidin-4-yl)-1H-pyrazol-1-yl]cyclobutyl}acetonitrile]	7.60 to 8.00	< 7.00
Cc1cc(OC2CCN([C@H]3C[C@](CC#N)(n4cc(-c5ncnc6[nH]ccc56)cn4)C3)CC2)nc(C(F)(F)F)n1 [Example 145, {trans-3-(4-{[6-methyl-2-(trifluoromethyl)pyrimidin-4-yl]oxy}piperidin-1-yl)-1-[4-(7H-pyrrolo[2,3-d]pyrimidin-4-yl)-1H-pyrazol-1-yl]cyclobutyl}acetonitrile]	7.60 to 8.00	< 7.00
N#CC[C@]1(n2cc(-c3ncnc4[nH]ccc34)cn2)C[C@H](N2CCC(Oc3cc(CO)nc(C(F)(F)F)n3)CC2)C1 [Example 146, {trans-3-(4-{[6-(hydroxymethyl)-2-(trifluoromethyl)pyrimidin-4-yl]oxy}piperidin-1-yl)-1-[4-(7H-pyrrolo[2,3-d]pyrimidin-4-yl)-1H-pyrazol-1-yl]cyclobutyl}acetonitrile]	7.60 to 8.00	< 7.00
N#CC[C@]1(n2cc(-c3ncnc4[nH]ccc34)cn2)C[C@H](N2CCC(Oc3cc(CN)nc(C(F)(F)F)n3)CC2)C1 [Example 147, {trans-3-(4-{[6-(aminomethyl)-2-(trifluoromethyl)pyrimidin-4-yl]oxy}piperidin-1-yl)-1-[4-(7H-pyrrolo[2,3-d]pyrimidin-4-yl)-1H-pyrazol-1-yl]cyclobutyl}acetonitrile]	7.60 to 8.00	7.00 to 7.60
N#CC[C@]1(n2cc(-c3ncnc4[nH]ccc34)cn2)C[C@H](N2CCC(Oc3cc(CN4CCCC4)nc(C(F)(F)F)n3)CC2)C1 [Example 148, {trans-3-(4-{[6-(pyrrolidin-1-ylmethyl)-2-(trifluoromethyl)pyrimidin-4-yl]oxy}piperidin-1-yl)-1-[4-(7H-pyrrolo[2,3-d]pyrimidin-4-yl)-1H-pyrazol-1-yl]cyclobutyl}acetonitrile]	7.60 to 8.00	< 7.00
N#CC[C@]1(n2cc(-c3ncnc4[nH]ccc34)cn2)C[C@H](N2CCC(Oc3cc(CN4CCOCC4)nc(C(F)(F)F)n3)CC2)C1 [Example 149, {trans-3-(4-{[6-(morpholin-4-ylmethyl)-2-(trifluoromethyl)pyrimidin-4-yl]oxy}piperidin-1-yl)-1-[4-(7H-pyrrolo[2,3-d]pyrimidin-4-yl)-1H-pyrazol-1-yl]cyclobutyl}acetonitrile]	7.00 to 7.60	< 7.00
N#CC[C@]1(n2cc(-c3ncnc4[nH]ccc34)cn2)C[C@H](N2CCC(Oc3cc(CN4CCC4)nc(C(F)(F)F)n3)CC2)C1 [Example 150, {cis-3-(4-{[6-(azetidin-1-ylmethyl)-2-(trifluoromethyl)pyrimidin-4-yl]oxy}piperidin-1-yl)-1-[4-(7H-pyrrolo[2,3-d]pyrimidin-4-yl)-1H-pyrazol-1-yl]cyclobutyl}acetonitrile]	7.60 to 8.00	< 7.00
Cc1cc(OC2CCN([C@H]3C[C@@](CC#N)(n4cc(-c5ncnc6[nH]ccc56)cn4)C3)CC2)nc(C(F)(F)F)c1 [Example 151, {trans-3-(4-{[4-methyl-6-(trifluoromethyl)pyridin-2-yl]oxy}piperidin-1-yl)-1-[4-(7H-pyrrolo[2,3-d]pyrimidin-4-yl)-1H-pyrazol-1-yl]cyclobutyl}acetonitrile]	> 8.00	7.00 to 7.60
N#CC[C@]1(n2cc(-c3ncnc4[nH]ccc34)cn2)C[C@H](N2CCN(C(=O)NC(C(F)(F)F)C(F)(F)F)CC2)C1 [Example 152, 4-{trans-3-(Cyanomethyl)-3-[4-(7H-pyrrolo[2,3-d]pyrimidin-4-yl)-1H-pyrazol-1-yl]cyclobutyl}-N-[2,2,2-trifluoro-1-(trifluoromethyl)ethyl]piperazine-1-carboxamide]	> 8.00	< 7.00
CC(C)(CO)NCc1cc(OC2CCN([C@H]3C[C@](CC#N)(n4cc(-c5ncnc6[nH]ccc56)cn4)C3)CC2)nc(C(F)(F)F)c1 [Example 153, {trans-3-(4-{[4-{[(2-hydroxy-1,1-dimethylethyl)amino]methyl}-6-(trifluoromethyl)pyridin-2-yl]oxy}piperidin-1-yl)-1-[4-(7H-pyrrolo[2,3-d]pyrimidin-4-yl)-1H-pyrazol-1-yl]cyclobutyl}acetonitrile]	> 8.00	7.00 to 7.60
N#CC[C@]1(n2cc(-c3ncnc4[nH]ccc34)cn2)C[C@H](N2CCC(Oc3cc(CNCCO)cc(C(F)(F)F)n3)CC2)C1 [Example 154, {trans-3-(4-{[4-{[(2-hydroxyethyl)amino]methyl}-6-(trifluoromethyl)pyridin-2-yl]oxy}piperidin-1-yl)-1-[4-(7H-pyrrolo[2,3-d]pyrimidin-4-yl)-1H-pyrazol-1-yl]cyclobutyl}acetonitrile]	> 8.00	7.00 to 7.60
N#CC[C@]1(n2cc(-c3ncnc4[nH]ccc34)cn2)C[C@H](N2CCC(Oc3cc(CNCCCO)cc(C(F)(F)F)n3)CC2)C1 [Example 155, {trans-3-(4-{[4-{[(3-hydroxypropyl)amino]methyl}-6-(trifluoromethyl)pyridin-2-yl]oxy}piperidin-1-yl)-1-[4-(7H-pyrrolo[2,3-d]pyrimidin-4-yl)-1H-pyrazol-1-yl]cyclobutyl}acetonitrile]	> 8.00	7.00 to 7.60
N#CC[C@]1(n2cc(-c3ncnc4[nH]ccc34)cn2)C[C@H](N2CCC(Oc3cc(CN4CCC4)cc(C(F)(F)F)n3)CC2)C1 [Example 156, {trans-3-(4-{[4-(azetidin-1-ylmethyl)-6-(trifluoromethyl)pyridin-2-yl]oxy}piperidin-1-yl)-1-[4-(7H-pyrrolo[2,3-d]pyrimidin-4-yl)-1H-pyrazol-1-yl]cyclobutyl}acetonitrile]	> 8.00	7.00 to 7.60
N#CC[C@]1(n2cc(-c3ncnc4[nH]ccc34)cn2)C[C@H](N2CCC(Oc3cc(CN4CC(O)C4)cc(C(F)(F)F)n3)CC2)C1 [Example 157, {trans-3-(4-{[4-[(3-hydroxyazetidin-1-yl)methyl]-6-(trifluoromethyl)pyridin-2-yl]oxy}piperidin-1-yl)-1-[4-(7H-pyrrolo[2,3-d]pyrimidin-4-yl)-1H-pyrazol-1-yl]cyclobutyl}acetonitrile]	> 8.00	7.00 to 7.60
N#CC[C@]1(n2cc(-c3ncnc4[nH]ccc34)cn2)C[C@H](N2CCC(Oc3cc(CN4CCCC4)cc(C(F)(F)F)n3)CC2)C1 [Example 158, {trans-3-(4-{[4-(pyrrolidin-1-ylmethyl)-6-(trifluoromethyl)pyridin-2-yl]oxy}piperidin-1-yl)-1-[4-(7H-pyrrolo[2,3-d]pyrimidin-4-yl)-1H-pyrazol-1-yl]cyclobutyl}acetonitrile]	> 8.00	7.00 to 7.60
N#CC[C@]1(n2cc(-c3ncnc4[nH]ccc34)cn2)C[C@H](N2CCC(Oc3cc(CN4CCOCC4)cc(C(F)(F)F)n3)CC2)C1 [Example 159, {trans-3-(4-{[4-(morpholin-4-ylmethyl)-6-(trifluoromethyl)pyridin-2-yl]oxy}piperidin-1-yl)-1-[4-(7H-pyrrolo[2,3-d]pyrimidin-4-yl)-1H-pyrazol-1-yl]cyclobutyl}acetonitrile]	> 8.00	7.00 to 7.60
N#CC[C@]1(n2cc(-c3ncnc4[nH]ccc34)cn2)C[C@H](N2CCC(Oc3cc(CN4CCC(F)(F)C4)cc(C(F)(F)F)n3)CC2)C1 [Example 160, {trans-3-(4-{[4-[(3,3-difluoropyrrolidin-1-yl)methyl]-6-(trifluoromethyl)pyridin-2-yl]oxy}piperidin-1-yl)-1-[4-(7H-pyrrolo[2,3-d]pyrimidin-4-yl)-1H-pyrazol-1-yl]cyclobutyl}acetonitrile]	7.60 to 8.00	< 7.00
N#CC[C@]1(n2cc(-c3ncnc4[nH]ccc34)cn2)C[C@H](N2CCC(Oc3cc(CN4CCC[C@H]4CO)cc(C(F)(F)F)n3)CC2)C1 [Example 161, {trans-3-(4-{[4-{[(2S)-2-(hydroxymethyl)pyrrolidin-1-yl]methyl}-6-(trifluoromethyl)pyridin-2-yl]oxy}piperidin-1-yl)-1-[4-(7H-pyrrolo[2,3-d]pyrimidin-4-yl)-1H-pyrazol-1-yl]cyclobutyl}acetonitrile]	> 8.00	7.00 to 7.60
